Experimental data taken from ChEMBL document CHEMBL4507259 (2021).
Active and inactive are the calls of the source. No cut-off for these calls is given here.

What was measured:
[1] = target: Sodium/potassium-transporting ATPase (Homo sapiens) (UniProt P05023+P14415+P05026+P50993+P54709+P13637+Q13733+P54710); assay: ATPase (Na+/K+) CEREP ligand profiling; assay type: protein-complex assay; details: Compound concentration 10.0 uM
[2] = target: Casein kinase I isoform gamma-1 (Homo sapiens) (UniProt Q9HCP0); details: Compound concentration 1000.0 nM
[3] = target: Homeodomain-interacting protein kinase 3 (Homo sapiens) (UniProt Q9H422); details: Compound concentration 1000.0 nM
[4] = target: Receptor-interacting serine/threonine-protein kinase 1 (Homo sapiens) (UniProt Q13546); details: Compound concentration 1000.0 nM
[5] = target: Beta-1 adrenergic receptor (Homo sapiens) (UniProt P08588); assay: beta 1 (h) CEREP ligand profiling; details: filed as agonist, Compound concentration 10.0 uM
[6] = target: RAC-gamma serine/threonine-protein kinase (Homo sapiens) (UniProt Q9Y243); details: Compound concentration 1000.0 nM
[7] = target: Tyrosine-protein kinase HCK (Homo sapiens) (UniProt P08631); details: Compound concentration 1000.0 nM
[8] = target: Serine/threonine-protein kinase SBK1 (Homo sapiens) (UniProt Q52WX2); details: Compound concentration 1000.0 nM
[9] = target: Tyrosine-protein kinase Blk (Homo sapiens) (UniProt P51451); details: Compound concentration 1000.0 nM
[10] = target: Serine/threonine-protein kinase PAK 1 (Homo sapiens) (UniProt Q13153); details: Compound concentration 1000.0 nM
[11] = target: TGF-beta receptor type-2 (Homo sapiens) (UniProt P37173); details: Compound concentration 1000.0 nM
LNCaP-Clone-FGC = assay: LnCaP-FGC Proliferation; assay type: functional, cell-based; details: Homo sapiens
[12] = target: Serine/threonine-protein kinase BRSK2 (Homo sapiens) (UniProt Q8IWQ3); details: Compound concentration 1000.0 nM
[13] = target: Phosphatidylinositol 4,5-bisphosphate 3-kinase catalytic subunit gamma isoform (Homo sapiens) (UniProt P48736); details: Compound concentration 1000.0 nM
[14] = target: Tyrosine-protein kinase SYK (Homo sapiens) (UniProt P43405); details: Compound concentration 1000.0 nM
[15] = target: RAC-alpha serine/threonine-protein kinase (Homo sapiens) (UniProt P31749); details: Compound concentration 1000.0 nM
[16] = target: 5-hydroxytryptamine receptor 2B (Homo sapiens, UniProt P41595); details: Compound concentration 10.0 uM
[17] = target: Ephrin type-B receptor 6 (Homo sapiens) (UniProt O15197); details: Compound concentration 1000.0 nM
[18] = target: Wee1-like protein kinase (Homo sapiens) (UniProt P30291); details: Compound concentration 1000.0 nM
[19] = target: Tyrosine-protein kinase ABL1 (Homo sapiens) (UniProt P00519); details: Compound concentration 1000.0 nM
[20] = target: Vasoactive intestinal polypeptide receptor 1 (Homo sapiens) (UniProt P32241); assay: VPAC1 (VIP1) (h) CEREP ligand profiling; details: filed as agonist, Compound concentration 10.0 uM
[21] = target: Serine/threonine-protein kinase 4 (Homo sapiens) (UniProt Q13043); details: Compound concentration 1000.0 nM
[22] = target: Na+ channel (site 2); sodium channel alpha subunit (family) (Homo sapiens, UniProt P35498+P35499+Q01118+Q14524+Q15858+Q99250+Q9NY46+Q9UI33+Q9UQD0+Q9Y5Y9); assay: Na+ channel (site 2) CEREP ligand profiling; assay type: protein assay; details: compound concentration 10 uM
[23] = target: 5-hydroxytryptamine receptor 7 (Homo sapiens) (UniProt P34969); assay: 5-HT7 (h) CEREP ligand profiling; details: filed as agonist, Compound concentration 10.0 uM
[24] = target: MAP kinase-interacting serine/threonine-protein kinase 2 (Homo sapiens) (UniProt Q9HBH9); details: Compound concentration 1000.0 nM
[25] = target: Vascular endothelial growth factor receptor 3 (Homo sapiens) (UniProt P35916); details: Compound concentration 1000.0 nM
[26] = target: Serine/threonine-protein kinase SIK1 (Homo sapiens) (UniProt P57059); details: Compound concentration 1000.0 nM
[27] = target: Ephrin type-A receptor 1 (Homo sapiens) (UniProt P21709); details: Compound concentration 1000.0 nM
[28] = target: Calcium/calmodulin-dependent protein kinase type II subunit beta (Homo sapiens) (UniProt Q13554); details: Compound concentration 1000.0 nM
[29] = target: Dual serine/threonine and tyrosine protein kinase (Homo sapiens) (UniProt Q6XUX3); details: Compound concentration 1000.0 nM
[30] = target: Mitogen-activated protein kinase kinase kinase kinase 3 (Homo sapiens) (UniProt Q8IVH8); details: Compound concentration 1000.0 nM
[31] = target: Inhibitor of nuclear factor kappa-B kinase subunit epsilon (Homo sapiens) (UniProt Q14164); details: Compound concentration 1000.0 nM
[32] = test system: Tyrosine-protein kinase ABL1 (Homo sapiens), P00519 [H396P]; details: Compound concentration 1000.0 nM
[33] = target: Dual specificity mitogen-activated protein kinase kinase 6 (Homo sapiens) (UniProt P52564); details: Compound concentration 1000.0 nM
[34] = target: Serine/threonine-protein kinase Nek6 (Homo sapiens) (UniProt Q9HC98); details: Compound concentration 1000.0 nM
[35] = target: Casein kinase I isoform delta (Homo sapiens) (UniProt P48730); details: Compound concentration 1000.0 nM
[36] = target: Interleukin-1 receptor-associated kinase 4 (Homo sapiens) (UniProt Q9NWZ3); details: Compound concentration 1000.0 nM
[37] = target: STE20/SPS1-related proline-alanine-rich protein kinase (Homo sapiens) (UniProt Q9UEW8); details: Compound concentration 1000.0 nM
[38] = test system: Epidermal growth factor receptor (Homo sapiens), P00533 [G719S]; details: Compound concentration 1000.0 nM
[39] = target: Glycogen synthase kinase-3 alpha (Homo sapiens) (UniProt P49840); details: Compound concentration 1000.0 nM
[40] = test system: Hepatocyte growth factor receptor (Homo sapiens), P08581 [Y1235D]; details: Compound concentration 1000.0 nM
[41] = target: Fibroblast growth factor receptor 3 (Homo sapiens) (UniProt P22607); details: Compound concentration 1000.0 nM
[42] = target: TGF-beta receptor type-1 (Homo sapiens) (UniProt P36897); details: Compound concentration 1000.0 nM
[43] = target: Ephrin type-A receptor 2 (Homo sapiens) (UniProt P29317); details: Compound concentration 1000.0 nM

Sequence of Serine/threonine-protein kinase Nek6 (Homo sapiens) (Q9HC98 whole entry, canonical isoform): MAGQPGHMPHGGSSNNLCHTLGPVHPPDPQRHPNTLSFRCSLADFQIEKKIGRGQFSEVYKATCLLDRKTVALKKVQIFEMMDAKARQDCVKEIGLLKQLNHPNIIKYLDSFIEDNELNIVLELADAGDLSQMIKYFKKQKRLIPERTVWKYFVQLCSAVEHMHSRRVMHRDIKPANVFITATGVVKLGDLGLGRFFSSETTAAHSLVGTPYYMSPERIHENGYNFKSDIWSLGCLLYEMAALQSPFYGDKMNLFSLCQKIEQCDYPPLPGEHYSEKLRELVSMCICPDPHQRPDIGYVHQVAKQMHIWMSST
Sequence of Serine/threonine-protein kinase SIK1 (Homo sapiens) (P57059 whole entry): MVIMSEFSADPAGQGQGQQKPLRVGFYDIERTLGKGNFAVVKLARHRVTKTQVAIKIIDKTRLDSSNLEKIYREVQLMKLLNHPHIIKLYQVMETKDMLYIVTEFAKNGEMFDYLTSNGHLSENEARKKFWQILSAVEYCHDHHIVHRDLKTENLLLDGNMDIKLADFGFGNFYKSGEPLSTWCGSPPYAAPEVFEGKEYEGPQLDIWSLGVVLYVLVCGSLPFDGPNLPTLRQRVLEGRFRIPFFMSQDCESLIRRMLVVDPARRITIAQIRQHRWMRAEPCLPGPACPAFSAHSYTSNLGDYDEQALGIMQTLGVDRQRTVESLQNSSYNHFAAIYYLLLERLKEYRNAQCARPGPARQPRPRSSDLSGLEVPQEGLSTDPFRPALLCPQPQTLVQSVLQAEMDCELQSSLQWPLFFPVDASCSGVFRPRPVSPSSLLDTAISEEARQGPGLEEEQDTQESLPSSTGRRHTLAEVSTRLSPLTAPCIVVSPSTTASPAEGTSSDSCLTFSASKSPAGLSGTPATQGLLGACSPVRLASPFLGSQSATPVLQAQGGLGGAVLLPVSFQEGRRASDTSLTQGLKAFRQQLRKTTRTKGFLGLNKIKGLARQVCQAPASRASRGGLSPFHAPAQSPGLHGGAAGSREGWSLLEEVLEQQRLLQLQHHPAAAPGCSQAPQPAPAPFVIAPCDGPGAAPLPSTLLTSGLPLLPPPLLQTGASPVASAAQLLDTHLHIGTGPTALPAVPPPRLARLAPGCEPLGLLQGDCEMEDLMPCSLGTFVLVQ
Sequence of Phosphatidylinositol 4,5-bisphosphate 3-kinase catalytic subunit gamma isoform (Homo sapiens) (P48736 whole entry, looked up, canonical isoform): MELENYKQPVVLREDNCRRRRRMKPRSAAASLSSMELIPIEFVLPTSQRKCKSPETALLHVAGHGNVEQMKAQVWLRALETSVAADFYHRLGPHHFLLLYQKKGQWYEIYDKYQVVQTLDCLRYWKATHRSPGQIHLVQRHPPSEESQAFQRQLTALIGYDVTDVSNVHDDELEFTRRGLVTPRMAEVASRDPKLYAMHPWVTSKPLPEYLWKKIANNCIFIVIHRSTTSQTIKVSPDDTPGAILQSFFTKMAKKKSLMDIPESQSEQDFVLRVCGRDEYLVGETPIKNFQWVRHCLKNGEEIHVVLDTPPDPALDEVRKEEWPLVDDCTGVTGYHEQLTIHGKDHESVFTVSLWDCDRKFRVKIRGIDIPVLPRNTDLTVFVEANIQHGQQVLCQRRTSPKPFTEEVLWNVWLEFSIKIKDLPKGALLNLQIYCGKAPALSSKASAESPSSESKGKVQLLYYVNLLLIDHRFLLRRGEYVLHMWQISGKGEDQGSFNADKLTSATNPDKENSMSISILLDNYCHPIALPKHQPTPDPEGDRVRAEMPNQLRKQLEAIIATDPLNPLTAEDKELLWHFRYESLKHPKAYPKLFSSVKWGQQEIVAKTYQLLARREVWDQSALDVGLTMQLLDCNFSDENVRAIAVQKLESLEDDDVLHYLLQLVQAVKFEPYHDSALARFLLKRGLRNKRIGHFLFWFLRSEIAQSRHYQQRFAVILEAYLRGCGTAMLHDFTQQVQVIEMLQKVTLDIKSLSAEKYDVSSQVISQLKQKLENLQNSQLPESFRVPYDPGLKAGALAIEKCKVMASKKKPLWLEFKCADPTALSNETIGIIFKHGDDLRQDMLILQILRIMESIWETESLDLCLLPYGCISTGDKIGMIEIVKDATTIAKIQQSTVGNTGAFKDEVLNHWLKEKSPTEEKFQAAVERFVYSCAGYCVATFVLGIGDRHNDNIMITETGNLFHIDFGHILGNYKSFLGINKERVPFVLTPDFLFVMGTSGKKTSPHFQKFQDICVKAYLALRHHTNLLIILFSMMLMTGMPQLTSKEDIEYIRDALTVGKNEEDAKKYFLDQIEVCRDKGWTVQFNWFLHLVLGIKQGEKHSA
Sequence of 5-hydroxytryptamine receptor 2B (P41595 whole entry): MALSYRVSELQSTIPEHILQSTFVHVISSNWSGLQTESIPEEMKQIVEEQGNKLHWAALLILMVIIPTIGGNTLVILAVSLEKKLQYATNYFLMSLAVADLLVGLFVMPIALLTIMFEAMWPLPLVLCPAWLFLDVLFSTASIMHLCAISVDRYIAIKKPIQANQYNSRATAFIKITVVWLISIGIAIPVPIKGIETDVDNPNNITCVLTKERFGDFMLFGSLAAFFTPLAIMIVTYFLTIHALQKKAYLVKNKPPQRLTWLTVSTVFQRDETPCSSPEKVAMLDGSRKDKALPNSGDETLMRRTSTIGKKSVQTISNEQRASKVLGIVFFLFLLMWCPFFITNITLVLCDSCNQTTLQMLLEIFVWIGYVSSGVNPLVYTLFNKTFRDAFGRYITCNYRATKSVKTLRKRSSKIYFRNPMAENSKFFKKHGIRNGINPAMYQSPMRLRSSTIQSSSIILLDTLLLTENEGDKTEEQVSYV
Sequence of Mitogen-activated protein kinase kinase kinase kinase 3 (Homo sapiens) (Q8IVH8 whole entry): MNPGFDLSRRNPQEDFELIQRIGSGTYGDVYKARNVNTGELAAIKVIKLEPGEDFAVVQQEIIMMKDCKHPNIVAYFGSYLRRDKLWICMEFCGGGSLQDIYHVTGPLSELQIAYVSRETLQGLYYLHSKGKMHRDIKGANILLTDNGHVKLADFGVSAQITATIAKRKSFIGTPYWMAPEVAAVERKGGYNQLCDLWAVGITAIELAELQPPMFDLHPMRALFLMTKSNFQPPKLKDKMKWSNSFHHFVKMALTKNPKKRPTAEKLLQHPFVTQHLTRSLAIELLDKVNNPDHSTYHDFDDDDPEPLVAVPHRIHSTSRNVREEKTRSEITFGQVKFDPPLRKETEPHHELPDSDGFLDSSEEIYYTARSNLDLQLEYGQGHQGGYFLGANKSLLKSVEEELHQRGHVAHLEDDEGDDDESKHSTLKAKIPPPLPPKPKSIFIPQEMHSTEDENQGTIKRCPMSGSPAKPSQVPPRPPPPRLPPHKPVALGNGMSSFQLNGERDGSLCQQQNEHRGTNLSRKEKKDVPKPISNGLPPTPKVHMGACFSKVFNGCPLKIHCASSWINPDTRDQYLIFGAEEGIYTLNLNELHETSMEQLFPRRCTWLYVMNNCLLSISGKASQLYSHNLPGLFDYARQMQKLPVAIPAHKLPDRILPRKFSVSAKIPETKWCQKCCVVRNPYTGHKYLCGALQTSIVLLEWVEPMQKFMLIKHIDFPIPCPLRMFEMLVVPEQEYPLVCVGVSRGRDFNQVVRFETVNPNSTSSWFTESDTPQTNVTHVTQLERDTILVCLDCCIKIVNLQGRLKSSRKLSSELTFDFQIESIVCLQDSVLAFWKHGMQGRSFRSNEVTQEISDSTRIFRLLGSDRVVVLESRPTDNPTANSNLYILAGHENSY
Sequence of Tyrosine-protein kinase HCK (Homo sapiens) (P08631 2-526 limits assumed): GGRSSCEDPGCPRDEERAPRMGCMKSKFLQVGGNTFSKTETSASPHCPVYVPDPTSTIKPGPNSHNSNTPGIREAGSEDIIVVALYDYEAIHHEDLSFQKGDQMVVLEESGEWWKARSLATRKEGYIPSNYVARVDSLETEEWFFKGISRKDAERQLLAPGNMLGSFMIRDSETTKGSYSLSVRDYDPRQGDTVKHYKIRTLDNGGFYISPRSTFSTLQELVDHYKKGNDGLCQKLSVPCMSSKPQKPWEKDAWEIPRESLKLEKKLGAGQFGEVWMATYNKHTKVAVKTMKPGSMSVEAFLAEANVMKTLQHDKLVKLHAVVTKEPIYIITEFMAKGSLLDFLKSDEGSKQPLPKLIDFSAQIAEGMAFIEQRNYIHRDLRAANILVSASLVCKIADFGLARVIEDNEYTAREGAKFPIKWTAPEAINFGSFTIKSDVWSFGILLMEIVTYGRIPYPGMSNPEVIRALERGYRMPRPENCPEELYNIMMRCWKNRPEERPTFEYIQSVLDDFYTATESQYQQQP
Sequence of Casein kinase I isoform gamma-1 (Homo sapiens) (Q9HCP0 whole entry, looked up, canonical isoform): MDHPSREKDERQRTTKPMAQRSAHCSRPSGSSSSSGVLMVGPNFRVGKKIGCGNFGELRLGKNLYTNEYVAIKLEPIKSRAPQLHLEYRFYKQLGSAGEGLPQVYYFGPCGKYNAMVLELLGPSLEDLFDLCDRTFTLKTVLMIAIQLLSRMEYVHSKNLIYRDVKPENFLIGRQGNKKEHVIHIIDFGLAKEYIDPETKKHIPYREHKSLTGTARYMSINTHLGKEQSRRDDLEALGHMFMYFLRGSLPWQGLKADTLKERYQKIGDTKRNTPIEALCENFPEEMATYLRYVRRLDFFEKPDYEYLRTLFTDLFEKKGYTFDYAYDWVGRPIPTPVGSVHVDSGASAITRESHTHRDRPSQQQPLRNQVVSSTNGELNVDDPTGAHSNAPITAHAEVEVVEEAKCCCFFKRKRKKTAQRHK
Sequence of Interleukin-1 receptor-associated kinase 4 (Homo sapiens) (Q9NWZ3 whole entry): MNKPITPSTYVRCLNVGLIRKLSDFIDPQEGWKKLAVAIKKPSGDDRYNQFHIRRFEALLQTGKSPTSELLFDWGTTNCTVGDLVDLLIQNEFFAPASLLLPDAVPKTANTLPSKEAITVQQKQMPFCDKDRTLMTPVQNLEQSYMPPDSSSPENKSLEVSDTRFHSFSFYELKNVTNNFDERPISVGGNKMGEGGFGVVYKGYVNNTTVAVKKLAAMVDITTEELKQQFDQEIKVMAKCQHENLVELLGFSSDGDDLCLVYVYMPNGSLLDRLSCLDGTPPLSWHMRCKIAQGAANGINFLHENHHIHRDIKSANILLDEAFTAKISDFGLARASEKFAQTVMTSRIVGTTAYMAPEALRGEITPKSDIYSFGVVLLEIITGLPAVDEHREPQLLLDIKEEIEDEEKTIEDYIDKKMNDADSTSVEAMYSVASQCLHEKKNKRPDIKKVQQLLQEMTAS

In the case of `CNC(=O)Nc1ccc2c(c1)CC[C@@]21OC(=O)N(CC(=O)N(Cc2ccc(F)cc2)[C@@H](C)C(F)(F)F)C1=O` [A-485], the inhibition [1] is reported as -1%, the residual activity [2] is reported as 94% and the residual activity [3] is reported as 73%. For the same compound, the residual activity [4] was 100%, the inhibition [5] was 17% and the residual activity [6] was 100%. The residual activity [7] was 99%, the residual activity [8] was 79% and the residual activity [9] was 100%. The residual activity [10] was 88%, the residual activity [11] was 90% and the IC50 (LNCaP-Clone-FGC) was 0.381 µM (active). It also gave a residual activity [12] of 70%, a residual activity [13] of 95% and a residual activity [14] of 70%. It also gave a residual activity [15] of 91%, an inhibition [16] of 81.4% and a residual activity [17] of 96%. The residual activity [18] was 80%, the residual activity [19] was 72% and the inhibition [20] was -5%. For the same compound, the residual activity [21] was 100%, the inhibition at 10 µM [22] was 19% (not active) and the inhibition [23] was 16%. The residual activity [24] was 82%, the residual activity [25] was 89% and the residual activity [26] was 98%. The residual activity [27] was 88%, the residual activity [28] was 81% and the residual activity [29] was 78%. For the same compound, the residual activity [30] was 76%, the residual activity [31] was 51% and the residual activity [32] was 74%. For the same compound, the residual activity [33] was 100%, the residual activity [34] was 86% and the residual activity [35] was 99%. For the same compound, the residual activity [36] was 78%, the residual activity [37] was 100% and the residual activity [38] was 95%. The residual activity [39] was 99%, the residual activity [40] was 81% and the residual activity [41] was 82%. For the same compound, the residual activity [42] was 98% and the residual activity [43] was 76%.
`CNC(=O)Nc1ccc2c(c1)[C@@]1(CC2)OC(=O)N(CC(=O)N(Cc2ccc(F)cc2)[C@@H](C)C(F)(F)F)C1=O` [A-486] gave an inhibition [1] of -1%, a residual activity [2] of 78% and a residual activity [3] of 90%. The residual activity [4] was 93%, the inhibition [5] was 6% and the residual activity [6] was 94%. For the same compound, the residual activity [7] was 100%, the residual activity [8] was 75% and the residual activity [9] was 100%. The residual activity [10] was 98%, the residual activity [11] was 95% and the IC50 (LNCaP-Clone-FGC) was > 10 µM (not active). The residual activity [12] was 90%, the residual activity [13] was 64% and the residual activity [14] was 82%. The residual activity [15] was 77%, the inhibition [16] was 29.2% and the residual activity [17] was 0%. For the same compound, the residual activity [18] was 100%, the residual activity [19] was 84% and the inhibition [20] was -8%. For the same compound, the residual activity [21] was 100%, the inhibition at 10 µM [22] was -5% (not active) and the inhibition [23] was 6%. It also gave a residual activity [24] of 76%, a residual activity [25] of 100% and a residual activity [26] of 90%. For the same compound, the residual activity [27] was 100%, the residual activity [28] was 100% and the residual activity [29] was 89%. For the same compound, the residual activity [30] was 89%, the residual activity [31] was 75% and the residual activity [32] was 83%. For the same compound, the residual activity [33] was 100%, the residual activity [34] was 100% and the residual activity [35] was 100%. For the same compound, the residual activity [36] was 94%, the residual activity [37] was 100% and the residual activity [38] was 100%. It also gave a residual activity [39] of 92%, a residual activity [40] of 93% and a residual activity [41] of 92%. It also gave a residual activity [42] of 89% and a residual activity [43] of 100%.
